Results taken from patent US9895346B2, “Applications of substituent benzyloxy group containing ether compounds for preparing antitumor drugs” (Sinochem Corporation, priority 2013, dated 2018).

Key:
[1] = test system: lung cancer cell line A549; experiment: In vitro cell inhibition assay (crystal violet), lung cancer A549; assay type: cell-based, human
Description: (§1) In vitro Cell inhibition assay is as follows:
(§2) The human cancer cell lines used for this assay were bladder cancer J82, T24, prostate cancer LNCap, PC-3, lung cancer A549, H157, H460, H520, colon cancer HCT8, HCT116, RkO, and leukemia HL-60, etc.
(§3) In vitro cell culture technology was selected for the determination of inhibition rate bladder cancer cell lines J82 and T24, prostate cancer cell lines LNCap and PC-3, lung cancer cell lines A549, H157, H460 and H520. 1000 to 3000 cells were inoculated to 24-well plate, followed by addition of 1 mL culture medium well known to researchers in this field to each well, the cells were cultured in 5% incubator for 24 hours at 37° C., then the different concentration compounds and controls were added to each well. It should be noted that the added volume is not more than 0.5% of total volume. After completion of addition, the cells continued being cultured in incubator for one week, the culture medium was removed and washed by cold PBS of 1 mL once, and then fixed for 10 minutes at room temperature with 1% formalin, followed by wash with PBS of 1 mL. After fixation, stain was carried out with 0.1% crystal violet for 30 minutes. 0.1% crystal violet was recycled. The stained cells were washed gently with deionized water, dried at room temperature and kepted. The inhibition rate was calculated according to the foiling equation. The controls are Selumetinib (AZD6244), Gefitinib, Cisplatin. Inhibition rate=number of left cells each treatment/number of left cells of untreated control×100%

[2] = test system: human leukemia HL-60 cells; experiment: Proliferation inhibition of human leukemia HL-60 cells, MTT method; assay type: cell-based; details: 48 h incubation, OPTI-MEM medium
Description: The inhibition rate of human leukemia HL-60 cells was evaluated by regular MTT method. The human leukemia HL-60 cells were picked up from cell incubator, after washed for twice using PBS, cells were digested by 0.25% trypsin, and then add medium to terminate the digestion. After cells were collected using centrifuge and re-suspended, counting cells under inverted microscope and adding medium to make a density which was 5×10^4 cells/mL. After 100 μL aliquots were added to each well of 96-well microtiter plates, cells were cultured in 5% incubator for overnight at 37° C., then the different concentration compounds were added to each well. After incubation for 48 h, MTT solution was added to each well and plates were then incubated for 4 h. The MTT tetrazolium was reduced to formazan by living cells. Then the formazan crystals were dissolved though adding DMSO to each well. The absorbance was read at 570 nm with a microplate reader.

[3] = test system: lung cancer cell line H460; experiment: In vitro cell inhibition assay (crystal violet), lung cancer H460; assay type: cell-based, human
Description: as §1, §2, §3

[4] = test system: lung cancer cell line H520; experiment: In vitro cell inhibition assay (crystal violet), lung cancer H520; assay type: cell-based, human
Description: as §1, §2, §3

| Structure (SMILES) | Proliferation inhibitory effect on human leukemia HL-60 cell (%) ([2]; concentration 1 μM) | Proliferation inhibitory effect on human leukemia HL-60 cell (%) ([2]; concentration 10 μM) | Proliferation inhibitory effect on human leukemia HL-60 cell (%) ([2]; concentration 100 μM) | other results |
| --- | --- | --- | --- | --- |
| COC=C(C(=O)OC)c1ccccc1COc1ccc2c(-c3ccc(C)cc3)cc(=O)oc2c1 [28-136] | – | – | – | Inhibition rate on human cancer cells ([1]; A549, 2.5 μM): 100%; Inhibition rate on human cancer cells ([1]; A549, 5.0 μM): 100% |
| COC=C(C(=O)OC)c1ccccc1COc1ccc2c(-c3ccc(OC)cc3)cc(=O)oc2c1 [28-137] | – | – | – | Inhibition rate on human cancer cells ([1]; A549, 2.5 μM): 100%; Inhibition rate on human cancer cells ([1]; A549, 5.0 μM): 100% |
| COC=C(C(=O)OC)c1ccccc1COc1ccc2c(C)cc(=O)oc2c1 [Compound 28-2] | 6.0 | 49.2 | 71.3 | Inhibition rate on human cancer cells ([3]; H460, 5.0 μM): 95% |
| COC=C(C(=O)OC)c1ccccc1COc1ccc2c(C)cc(=O)oc2c1C [Compound 28-3] | 4.1 | 33.4 | 58.8 | – |
| COC=C(C(=O)OC)c1ccccc1COc1ccc2c(C)c(C)c(=O)oc2c1C [Compound 28-6] | 48.2 | 53.0 | 52.0 | – |
| CCc1c(C)c2ccc(OCc3ccccc3C(=COC)C(=O)OC)cc2oc1=O [Compound 28-18] | – | – | – | Inhibition rate on human cancer cells ([1]; A549, 0.5 μM): 90%; Inhibition rate on human cancer cells ([1]; A549, 1.0 μM): 100%; Inhibition rate on human cancer cells ([1]; A549, 2.5 μM): 100%; Inhibition rate on human cancer cells ([1]; A549, 5.0 μM): 100%; Inhibition rate on human cancer cells ([3]; H460, 0.25 μM): 80%; Inhibition rate on human cancer cells ([3]; H460, 0.5 μM): 90%; Inhibition rate on human cancer cells ([3]; H460, 1.0 μM): 95%; Inhibition rate on human cancer cells ([3]; H460, 2.5 μM): 95%; Inhibition rate on human cancer cells ([3]; H460, 5.0 μM): 95%; Inhibition rate on human cancer cells ([4]; H520, 0.25 μM): 50%; Inhibition rate on human cancer cells ([4]; H520, 0.5 μM): 95%; Inhibition rate on human cancer cells ([4]; H520, 1.0 μM): 100%; Inhibition rate on human cancer cells ([4]; H520, 2.5 μM): 100%; Inhibition rate on human cancer cells ([4]; H520, 5.0 μM): 100% |
| COC=C(C(=O)OC)c1ccccc1COc1ccc2cc(C#N)c(=O)oc2c1 [Compound 28-24] | 10.8 | 44.5 | 86.7 | – |
| COC=C(C(=O)OC)c1ccccc1COc1ccc2c(-c3ccc(F)cc3)cc(=O)oc2c1 [Compound 28-38] | 77.5 | 72.9 | 63.7 | – |
| COC=C(C(=O)OC)c1ccccc1COc1ccc2c(C)c(Cc3ccccc3)c(=O)oc2c1 [Compound 28-68] | 54.6 | 62.0 | 84.4 | – |
| COC=C(C(=O)OC)c1ccccc1COc1ccc2c(C)c(C(C)C)c(=O)oc2c1 [Compound 28-71] | 40.9 | 48.2 | 50.3 | – |
| CCCc1c(CCC)c2ccc(OCc3ccccc3C(=COC)C(=O)OC)cc2oc1=O [Compound 28-79] | 28.8 | 53.1 | 71.2 | – |
| COC=C(C(=O)OC)c1ccccc1COc1ccc2c(-c3ccc(Cl)nc3)cc(=O)oc2c1 [Compound 28-124] | 0.5 | 29.3 | 27.8 | Inhibition rate on human cancer cells ([3]; H460, 5.0 μM): 75%; Inhibition rate on human cancer cells ([4]; H520, 5.0 μM): 70% |
| COC=C(C(=O)OC)c1ccccc1COc1ccc2c3c(c(=O)oc2c1)CCC3 [Compound 28-125] | 47.0 | 73.8 | 85.0 | – |
